Read-outs that look alike come from different tables or passages of the source.

Data set [1] deals with AdV. As to the kind of experiment: microbe, parasite or virus in culture. The format is cell-based. To be noted: unidentified adenovirus, A549 cells.
Data set [2] has as its system BKV. The data set can be described thus: qPCR assay for BKV. The format is cell-based, BK virus. Particulars: Betapolyomavirus hominis, HFF cells. The procedure: (§1) qPCR Assays for BKV and JCV:
Primary assays for BK virus were performed in 96-well plates containing monolayers of HFF cells. Compound dilutions were prepared in plates containing cells which were subsequently infected at with the Gardner strain of BK virus. After a 7 d incubation, total DNA was prepared with a purification kit and genome copy number was quantified by real time PCR. Compounds that were positive in this assay were confirmed in a similar assay in 96-well plates with the compounds added 1 h […] to identify compounds that inhibit early stages of replication including adsorption and penetration. Genome copy number was determined by methods described above.
Primary assays for BK virus were performed in 96-well plates containing monolayers of HFF cells. Compound dilutions were prepared in plates containing cells which were subsequently infected at with the Gardner strain of BK virus. After a 7 d incubation, total DNA was prepared with a Wizard SV 96 well purification kit and genome copy number was quantified by real time PCR using the primers 5′-[…]-3′ (SEQ ID No. 8) , 5′-[…]-3′ (SEQ ID No. 9) and probe 5-6-FAM […]-3′ (SEQ ID No. 10) . Plasmid pMP526 served as the DNA standard for quantitation purposes. […] Genome copy number was determined by methods described above.

The test system of data set [3] is HSV-2. As to the kind of experiment: Plaque-reduction assay for HSV-2. To be noted: Human alphaherpesvirus 2; HSV-2, HFF cells. In kind it is cell-based, herpes simplex virus 2. Here is the method:
Plaque-Reduction Assays for HSV-1, HSV-2, VZV and HCMV:
Monolayers of cells were prepared in six-well plates and incubated at to allow the cells to reach confluency. Media was then aspirated from the wells and of virus was added to each of three wells to yield 20-30 plaques in each well. The virus was allowed to adsorb to the cells for 1 h and the plates were rocked gently every 15 min to redistribute the media. Compounds were diluted in maintenance cell culture media consisting of MEM with Earl's salts supplemented with 2% FBS, L-glutamine, penicillin, and gentamycin. Solutions were added to duplicate wells and the plates were incubated for various times, depending on the virus used. The plaque-reduction assay with HSV-1 strain F was performed in a similar manner but with Vero cells infected one day after plating. For HSV-1 and -2, the monolayers were stained with 1% crystal violet in 20% methanol and the unbound dye removed by washing with dH2O. For assays with HCMV and VZV, the cell monolayer was stained with 1% Neutral Red solution for 4 h then the stain was aspirated and the cells were washed with PBS. For all assays, plaques were enumerated using a stereomicroscope and the concentration of compound that reduced plaque formation by 50% (EC50) was interpolated from the experimental data. […]
Background: Plaques are areas of infected cells; plaque reduction assays count them against a control.

In data set [4] the test system is JCV. The data set can be described thus: qPCR assay for JCV. The format is cell-based, JC virus. Particulars: JC polyomavirus, 293TT cells. Here is the method: as §1
Primary evaluation of compounds against JC virus were also performed by methods similar to those for BK virus primary assays. Secondary assays against JCV were performed in COS7 cells by methods similar to those for BK virus to identify compounds that inhibited adsorption or penetration of the virus.
Primary evaluation of compounds against JC virus were also performed by methods similar to those for BK virus primary assays but were done in 293TT cells and utilized the 1-4 strain of JCV in 293TT cells. Viral DNA was quantified using primers 5′-[…]-3′ (SEQ ID No. 11) and 5′-[…]-3′ (SEQ ID No. 12) and probe 5′-6-FAM-[…]-TAMRA-3′ (SEQ ID No. 13) together with the plasmid pMP508 to provide a standard curve for absolute quantification. Secondary assays against JCV were performed in COS7 cells by methods similar to those for BK virus to identify compounds that inhibited adsorption or penetration of the virus.

Data set [5] has as its system HFF. To be noted: HFF cells.
Data set [6] is described as follows: in vitro. Particulars: human.

For orientation: EC50 means the concentration giving half of the maximal effect. High values mean a less potent agent, low ones a more potent agent. On to `Cc1nc(N)c2c(C(N)=O)cn([C@@H]3O[C@H](CO)[C@@H](O)[C@H]3O)c2n1` [Compound 1, 4-amino-7-((2R,3R,4S,5R)-3,4-dihydroxy-5-(hydroxymethyl)tetrahydrofuran-2-yl)-2-methyl-7H-pyrrolo[2,3-d]pyrimidine-5-carboxamide], for which the EC50 in data set [1] is > 100 µM; in data set [2], > 60 µM; in data set [3], > 60 µM; in data set [4], 0.46 µM. Further, the CC50 in data set [5] (parallel to BKV assay), in data set [5] (parallel to HSV-2 assay), in data set [5] (parallel to VACV assay), in data set [5] (parallel to VZV assay) and in data set [6] was > 60 µM in each case.

The record behind these values is patent publication US9708359B2, “Pyrrolopyrimidine nucleosides and analogs thereof” (Chimerix, Inc., priority 2015, dated 2017).
